Molecular target: Coagulation factor XI (Homo sapiens, UniProt P03951)
Assay: In Vitro Assays: Factor XIa determinations were made in 50 mM HEPES buffer at pH 7.4 containing 145 mM NaCl, 5 mM KCl, and 0.1% PEG 8000 (polyethylene glycol; JT Baker or Fisher Scientific). Determinations were made using purified human Factor XIa at a final concentration of 25-200 pM (Haematologic Technologies) and the synthetic substrate S-2366 (pyroGlu-Pro-Arg-pNA; CHROMOGENIX® or AnaSpec) at a concentration of 0.0002-0.001 M.

Sequence of Coagulation factor XI (P03951 19-387 limits assumed): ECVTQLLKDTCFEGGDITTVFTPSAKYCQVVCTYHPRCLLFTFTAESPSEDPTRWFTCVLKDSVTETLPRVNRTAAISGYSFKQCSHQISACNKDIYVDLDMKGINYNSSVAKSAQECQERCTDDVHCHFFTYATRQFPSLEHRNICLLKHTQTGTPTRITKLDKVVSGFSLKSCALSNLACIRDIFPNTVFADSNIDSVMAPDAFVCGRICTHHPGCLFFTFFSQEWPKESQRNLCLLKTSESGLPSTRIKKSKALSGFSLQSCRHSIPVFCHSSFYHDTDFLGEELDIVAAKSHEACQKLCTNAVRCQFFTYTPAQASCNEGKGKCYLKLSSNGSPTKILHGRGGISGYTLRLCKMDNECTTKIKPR
Sequence of Coagulation factor XI (P03951 388-625 limits assumed): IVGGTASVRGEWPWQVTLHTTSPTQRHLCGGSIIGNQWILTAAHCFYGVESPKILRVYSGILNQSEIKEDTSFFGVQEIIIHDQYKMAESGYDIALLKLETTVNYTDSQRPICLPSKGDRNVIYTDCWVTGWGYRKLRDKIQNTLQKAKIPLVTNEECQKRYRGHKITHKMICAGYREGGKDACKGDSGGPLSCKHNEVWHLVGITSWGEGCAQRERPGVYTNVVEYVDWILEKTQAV

COC(=O)Nc1ccc2c(c1)N[C@@H](C(F)F)CCCC[C@H](NC(=O)/C=C/c1cc(Cl)ccc1-n1cnnn1)c1nc-2c[nH]1
Ki: 289 nM

Reference: ChEMBL document CHEMBL5728798, “Macrocycles as factor XIA inhibitors” (2021)
